Five molecules from ChEMBL document CHEMBL6115048, “Uncovering α-Selectivity for Liver X Receptor Agonists for Lipotoxic Cancer Therapies” (J Med Chem, 2025) can be followed below.

In assay [1] the target is T1, Oxysterols receptor LXR-alpha (Homo sapiens, UniProt Q13133).
T1 sequence (Q13133 whole entry): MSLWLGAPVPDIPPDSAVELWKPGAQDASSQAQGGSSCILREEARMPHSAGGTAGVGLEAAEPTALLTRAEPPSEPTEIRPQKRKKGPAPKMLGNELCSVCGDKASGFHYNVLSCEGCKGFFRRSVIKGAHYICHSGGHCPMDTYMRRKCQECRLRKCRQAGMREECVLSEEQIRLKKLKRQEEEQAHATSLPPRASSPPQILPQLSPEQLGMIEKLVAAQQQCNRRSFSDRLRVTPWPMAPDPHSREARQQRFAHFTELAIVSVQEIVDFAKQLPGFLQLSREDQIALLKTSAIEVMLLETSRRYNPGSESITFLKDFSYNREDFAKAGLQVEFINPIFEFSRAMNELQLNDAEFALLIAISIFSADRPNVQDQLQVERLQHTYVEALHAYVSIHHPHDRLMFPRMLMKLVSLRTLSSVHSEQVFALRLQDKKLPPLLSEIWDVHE
Put plainly: Agonist activity at GST-tagged LXRalpha LBD (unknown origin) measured after 6 hrs in presence of fluorescein-TRAP220/DRIP-2 by TR-FRET assay.

Assay [2] deals with T2, Oxysterols receptor LXR-beta (Homo sapiens, UniProt P55055).
T2 sequence (P55055 whole entry): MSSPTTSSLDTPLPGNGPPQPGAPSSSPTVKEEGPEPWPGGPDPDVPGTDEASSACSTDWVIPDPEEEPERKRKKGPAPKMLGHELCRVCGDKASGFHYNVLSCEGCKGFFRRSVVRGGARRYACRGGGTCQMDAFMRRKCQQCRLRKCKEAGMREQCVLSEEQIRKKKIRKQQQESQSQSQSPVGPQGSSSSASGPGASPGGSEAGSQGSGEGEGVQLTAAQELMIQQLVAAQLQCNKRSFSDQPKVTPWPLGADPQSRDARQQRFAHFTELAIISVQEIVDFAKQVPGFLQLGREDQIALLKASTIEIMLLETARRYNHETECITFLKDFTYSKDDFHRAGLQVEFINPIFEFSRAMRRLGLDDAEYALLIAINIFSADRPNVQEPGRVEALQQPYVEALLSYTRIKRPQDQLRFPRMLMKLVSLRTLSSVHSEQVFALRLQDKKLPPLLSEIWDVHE
Nature of the assay: Agonist activity at GST-tagged LXRbeta LBD (unknown origin) measured after 6 hrs in presence of fluorescein-TRAP220/DRIP-2 by TR-FRET assay.

For assay [3], the system named is Hep 3B2. Put plainly: Antiproliferative activity against human Hep3B cells assessed as reduction in cell viability measured after 5 days in presence of sorafenib by Celltiter-glo assay. The class given is functional, cell-based. Particulars: for pEC50: 120 h. Background: In ATP-based viability assays light output follows the ATP content of the culture.
For assay [4], the system named is Hepatocellular carcinoma organoid. Nature of the assay: Antiproliferative activity against C57BL/6 mouse Hepatocellular carcinoma organoids harboring myristoylated Akt1 and overexpressing Myc assessed as reduction in cell viability measured after 5 days in presence of sorafenib by Celltiter-glo assay. The class given is functional, tissue-based. Particulars: Neoplasm, dose 1-5 µM, time 5.0 day.

pEC50: −log10 of the molar value.

In the case of `CC(C)(C)OC(=O)NC1CCN(c2ccc(NC3=C(c4ccccc4)C(=O)N(Cc4ccccc4)C3=O)cc2)CC1`, the EC50 entry in assay [1] and in assay [2] was “Not_active” in each case. As a reminder, the pEC50 is the EC50 on a negative log10 scale, so that one unit is a factor of ten. Take `COc1ccc(NC2=C(c3ccccc3)C(=O)N(Cc3ccccc3)C2=O)cc1`: the pEC50 in assay [3] was 5.42. Take `CN1CCN(c2ccc(NC3=C(c4ccccc4)C(=O)N(Cc4ccccc4)C3=O)cc2)CC1`: the EC50 result in assay [1] and in assay [2] was “Not_active” each time. Regarding `O=C(O)Cc1cccc(OCCCN(Cc2cccc(C(F)(F)F)c2Cl)CC(c2ccccc2)c2ccccc2)c1`, the negative-log EC50 (pEC50) in assay [3] is 5.72. In addition, the Activity result in assay [3] (time 5.0 day) and in assay [4] was “Dose-dependent-effect” throughout. On to `O=S(=O)(c1ccccc1)N(CC(F)(F)F)c1ccc(C(O)(C(F)(F)F)C(F)(F)F)cc1`, for which the Activity entry in assay [4] was “Dose-dependent-effect”.
